Experiments:
Assay in all cases: relative viability (nuclei count vs DMSO), 5 days (fraction); higher = more cells survive
Pemetrexed + Vorinostat = compound: Nc1nc2[nH]cc(CCc3ccc(C(=O)N[C@@H](CCC(=O)O)C(=O)O)cc3)c2c(=O)[nH]1 [Pemetrexed] + O=C(CCCCCCC(=O)Nc1ccccc1)NO [Vorinostat] (partner 1 µM)
Method in brief: (§1)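 One day after seeding in 1536-well plates, lung cancer cell lines were dosed by pin tool. Dosing was either single-drug or a fixed anchor-drug dose plus five library-drug doses (not always all listed) in √10 steps. After 5 days, nuclei were stained in one fix-and-stain step and counted on 4× images, and relative viability is the nuclei count of treated wells over that of vehicle wells, given as the median of duplicate plates.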

Idelalisib + Pictilisib = compound: CC[C@H](Nc1ncnc2[nH]cnc12)c1nc2cccc(F)c2c(=O)n1-c1ccccc1 [Idelalisib] + CS(=O)(=O)N1CCN(Cc2cc3nc(-c4cccc5[nH]ncc45)nc(N4CCOCC4)c3s2)CC1 [Pictilisib] (partner 1 µM)
Method in brief: as §1

Pemetrexed + Olaparib = compound: Nc1nc2[nH]cc(CCc3ccc(C(=O)N[C@@H](CCC(=O)O)C(=O)O)cc3)c2c(=O)[nH]1 [Pemetrexed] + O=C(c1cc(Cc2n[nH]c(=O)c3ccccc23)ccc1F)N1CCN(C(=O)C2CC2)CC1 [Olaparib] (partner 8 µM)
Method in brief: as §1

Idelalisib + Tozasertib = compound: CC[C@H](Nc1ncnc2[nH]cnc12)c1nc2cccc(F)c2c(=O)n1-c1ccccc1 [Idelalisib] + Cc1cc(Nc2cc(N3CCN(C)CC3)nc(Sc3ccc(NC(=O)C4CC4)cc3)n2)n[nH]1 [Tozasertib] (partner 0.1 µM)
Method in brief: as §1

UMC-11 was tested. Which relative viability (Pemetrexed + Vorinostat; first compound 0.002 µM) did it give?
The relative viability was 0.425.

And the relative viability (Pemetrexed + Vorinostat; first compound 0.006325 µM)?
Its relative viability is 0.355.

And the relative viability (Pemetrexed + Vorinostat; first compound 0.02 µM)?
Its relative viability is 0.44.

And the relative viability (Pemetrexed + Vorinostat; first compound 0.06325 µM)?
The relative viability was 0.347.

And the relative viability (Pemetrexed + Vorinostat; first compound 0.2 µM)?
Its relative viability is 0.35.

And the relative viability (Idelalisib + Pictilisib; first compound 0.04 µM)?
Its relative viability is 0.939.

And the relative viability (Idelalisib + Pictilisib; first compound 0.1265 µM)?
Its relative viability is 0.744.

And the relative viability (Idelalisib + Pictilisib; first compound 0.4 µM)?
Its relative viability is 0.778.

What about the relative viability (Idelalisib + Pictilisib; first compound 1.265 µM) of the same cell line?
Its relative viability is 0.939.

What about the relative viability (Idelalisib + Pictilisib; first compound 4 µM) of the same cell line?
Its relative viability is 0.865.

What about the relative viability (Pemetrexed + Olaparib; first compound 0.002 µM) of the same cell line?
The relative viability was 0.361.

And the relative viability (Pemetrexed + Olaparib; first compound 0.006325 µM)?
Its relative viability is 0.374.

And the relative viability (Pemetrexed + Olaparib; first compound 0.02 µM)?
Its relative viability is 0.999.

What about the relative viability (Pemetrexed + Olaparib; first compound 0.06325 µM) of the same cell line?
Its relative viability is 0.441.

What about the relative viability (Pemetrexed + Olaparib; first compound 0.2 µM) of the same cell line?
The relative viability was 0.358.

And the relative viability (Idelalisib + Tozasertib; first compound 0.04 µM)?
Its relative viability is 0.218.

What about the relative viability (Idelalisib + Tozasertib; first compound 0.1265 µM) of the same cell line?
The relative viability was 0.192.

What about the relative viability (Idelalisib + Tozasertib; first compound 0.4 µM) of the same cell line?
Its relative viability is 0.203.

And the relative viability (Idelalisib + Tozasertib; first compound 1.265 µM)?
Its relative viability is 0.188.

What about the relative viability (Idelalisib + Tozasertib; first compound 4 µM) of the same cell line?
Its relative viability is 0.192.

— the supplement of paper PMC10307832
